Assay results from patent publication US12016884B2, “Adipose derived stem cell exosomes and uses thereof” (UNIVERSITY OF SOUTH FLORIDA, priority 2016, dated 2024).
“Also recorded” adds a separate entry of the source.

Test system: human dermal fibroblast (HDF) cells
Test: ECIS (electric cell-substrate impedance sensing) wound healing assay
Assay type: cell-based
Details: Dynasore about 50 μM added to media with 20 μg exosomes (FIG. 9)
Experimental: ECIS assays: The ECIS or electric cell-substrate impedance sensing instrument (Applied Biophysics) recorded the impedance on electrically wounded hHDF to detect the migratory response. Briefly, 200 μl of cell suspension were seeded per well of 8W1E ECIS array (5×10^4 cells per well) coated with about 1% gelatin. After cells were confluent in the incubator, the ECIS chambers were mounted to the ECIS system. […] Arrays were then washed with medium under the microscope to remove any dead cells on the electrodes. Thereafter, the wound healing process was determined in real-time by measuring the recovery of electrical impedance, an indicator of the surrounding viable fibroblast cells migrating into the wounded area. […]
Briefly, HDF cells on the micro-electrods of the ECIS wells were killed with a high electrical voltage. Subsequently, the migration of viable cells onto the wounded microelectrodes was measured in real-time by electrical resistance in the presence of bFGF ([…]), about 10 μg/mL exosomes, and about 20 μg/mL exosome respectively. The percentage of recovery was calculated by the difference in the resistance of each time point and the resistance of the first time point after wounding divided by the resistance before the wounding. […]

O=C(N/N=C/c1ccc(O)c(O)c1)c1cc2ccccc2cc1O [Dynasore]
effect on exosome-driven cell migration in ECIS: blocked the cell migratory effect of exosomes; also recorded: greatly attenuate cell migration; also recorded: inhibition of migration
